Molecules are shown by their SMILES.

This passage reports IC50 and melting point results from patent publication US20050176775A1, “Substituted pyridinones” (priority 2003, published 2005).

The target in the first series is T1, human p38 kinase alpha (Homo sapiens, UniProt Q16539).
T1 construct: made in house; host or cells: E. coli DH10B
T1 sequence (Q16539 whole entry): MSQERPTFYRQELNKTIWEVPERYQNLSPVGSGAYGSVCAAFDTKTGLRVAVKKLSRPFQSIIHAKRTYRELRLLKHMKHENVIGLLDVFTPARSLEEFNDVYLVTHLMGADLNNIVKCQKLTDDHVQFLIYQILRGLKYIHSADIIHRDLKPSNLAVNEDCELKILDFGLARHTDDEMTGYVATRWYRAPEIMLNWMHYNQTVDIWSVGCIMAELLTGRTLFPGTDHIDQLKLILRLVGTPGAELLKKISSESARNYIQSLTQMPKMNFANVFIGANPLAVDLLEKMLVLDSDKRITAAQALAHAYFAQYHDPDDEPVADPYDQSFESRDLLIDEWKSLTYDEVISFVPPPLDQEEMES
The series can be described thus: p38 alpha kinase assay (PHAS-I / 32P-ATP format or EGFRP / 33P-ATP format). The settings on record: inhibition of activated human p38 kinase alpha; the text does not say which of the two in vitro formats was used. In kind it is biochemical. On the procedure:
The ability of compounds to inhibit human p38 kinase alpha was evaluated using two in vitro assay methods. In the first method, activated human p38 kinase alpha phosphorylates a biotinylated substrate, PHAS-I (phosphorylated heat and acid stable protein-insulin inducible), in the presence of gamma ^32P-ATP (^32P-ATP). PHAS-I was biotinylated prior to the assay and provides a means of capturing the substrate, which is phosphorylated during the assay. p38 Kinase was activated by MKK6. Compounds were tested in 10 fold serial dilutions over the range of 100 μM to 0.001 μM using 1% DMSO. Each concentration of inhibitor was tested in triplicate.
All reactions were carried out in 96 well polypropylene plates. Each reaction well contained 25 mM HEPES pH 7.5, 10 mM magnesium acetate and 50 μM unlabeled ATP. […] Activated human p38 kinase alpha was used at 1 μg per 50 μl reaction volume representing a final concentration of 0.3 μM. […]
Following incubation, 20 μl of reaction mixture was transferred to a high capacity streptavidin coated filter plate (SAM-streptavidin-matrix, Promega) prewetted with phosphate buffered saline. […] The plates were sealed and counted.
Compounds were tested in 10 fold serial dilutions over the range of 100 μM to 0.001 μM in 1% DMSO. […] 150 μl of Microscint 40 was then added to each well of the Microlite plate, and the plate was sealed, mixed, and counted.
For `Cc1ccc(C(N)=O)cc1-n1c(C)cc(OCc2ccc(F)cc2F)c(Br)c1=O` (single isomer, unassigned) [Example 736, (+)-3-[3-bromo-4-[(2,4-difluorobenzyl)oxy]-6-methyl-2-oxopyridin-1(2H)-yl]-4-methylbenzamide], the IC50 (usually the concentration that gives 50% inhibition) is under 1 µM. On the same count and under the same terms, the value for `Cc1c(/C=N/O)c(OCc2ccc(F)cc2F)c(Br)c(=O)n1-c1c(F)cccc1F` [Example 565, 5-bromo-4-[(2,4-difluorobenzyl)oxy]-1-(2,6-difluorophenyl)-2-methyl-6-oxo-1,6-dihydropyridine-3-carbaldehyde Oxime] was 25 to 100 µM.

Tested on in another series: not given
Assay: not given
Details: not given
Turning to `COC(=O)c1ccccc1Cn1ccc(OCc2ccc(F)cc2)c(Br)c1=O` [Example 72, methyl 2-[3-Bromo-4-(4-fluorobenzyloxy)-2-oxo-2H-pyridin-1-ylmethyl]benzoate], the melting point (commonly the temperature, or range, at which the solid turns liquid) is 161 to 165 °C. Compound `CN(C)Cc1ccc(Cn2ccc(OCc3ccc(F)cc3F)c(Br)c2=O)cc1` [Example 74, 3-bromo-4-(2,4-difluorobenzyloxy)-1-[(4-dimethylaminomethyl)benzyl]-1H-pyridin-2-one] displayed a melting point of 111 to 113 °C. `CC(C)NCc1cccc(Cn2ccc(OCc3ccc(F)cc3F)c(Br)c2=O)c1` [Example 75, 3-bromo-4-(2,4-difluorobenzyloxy)-1-[3-(isopropylaminomethyl)benzyl]-1H-pyridin-2-one] came in with a melting point of 109 to 110 °C.

Consider `CN(C)Cc1cccc(Cn2ccc(OCc3ccc(F)cc3F)c(Br)c2=O)c1` [Example 76, 3-bromo-4-(2,4-difluorobenzyloxy)-1-[(3-dimethylaminomethyl)benzyl]-1H-pyridin-2-one], for which the melting point was in the range of 103 to 107 °C.

In the case of `CNCc1cccc(Cn2ccc(OCc3ccc(F)cc3F)c(Br)c2=O)c1` [Example 77, 3-Bromo-4-(2,4-difluorobenzyloxy)-1-[(3-methylaminomethyl)benzyl]-1H-pyridin-2-one], the melting point is 107 to 111 °C. Take `CC(C)(C)OC(=O)NCc1cccc(Cn2ccc(OCc3ccc(F)cc3F)c(Br)c2=O)c1` [Example 78, {3-[3-bromo-4-(2,4-difluorobenzyloxy)-2-oxo-2H-pyridin-1-ylmethyl]benzyl}carbamic Acid Tert-Butyl Ester]: the melting point was in the range of 80 to 84 °C. `CC(C)NCc1ccc(Cn2ccc(OCc3ccc(F)cc3F)c(Cl)c2=O)cc1` [Example 80, 3-chloro-4-(2,4-difluorobenzyloxy)-1-[4-(isopropylaminomethyl)benzyl]-1H-pyridin-2-one]: the melting point fell in the range of 146 to 151 °C. `CS(=O)(=O)c1cccc(Cn2ccc(OCc3ccc(F)cc3F)c(Cl)c2=O)c1` [Example 81, 3-chloro-4-(2,4-difluorobenzyloxy)-1-[(3-methanesulfonyl)benzyl]-1H-pyridin-2-one] had a melting point of 155 to 157 °C. `CS(=O)(=O)c1ccc(Cn2ccc(OCc3ccc(F)cc3F)c(Cl)c2=O)cc1` [Example 82, 3-chloro-4-(2,4-difluorobenzyloxy)-1-[(4-methanesulfonyl)benzyl]-1H-pyridin-2-one] came in with a melting point of 223 to 225 °C. `NC(=O)c1ccc(Cn2ccc(OCc3ccc(F)cc3F)c(Cl)c2=O)cc1` [Example 83, 4-[3-chloro-4-(2,4-difluorobenzyloxy)-2-oxo-2H-pyridin-1-ylmethyl]benzamide] returned a melting point of 235 to 238 °C. On to `O=c1c(Cl)c(OCc2ccc(F)cc2F)ccn1Cc1cccc2c1CCNC2` [Example 85, 3-chloro-4-(2,4-difluorobenzyloxy)-1-(1,2,3,4-tetrahydroisoquinolin-5-ylmethyl)-1H-pyridin-2-one], for which the melting point lay within 180 to 184 °C. `O=c1c(Cl)c(OCc2ccc(F)cc2F)ccn1Cc1ccc2[nH]ccc2c1` [Example 86, 3-chloro-4-(2,4-difluorobenzyloxy)-1-(1H-indol-5-ylmethyl)-1H-pyridin-2-one] had a melting point of 152 to 153 °C. On to `O=c1c(Cl)c(OCc2ccc(F)cc2F)ccn1Cc1ccc2c(c1)CCN2` [Example 88, 3-chloro-4-(2,4-difluorobenzyloxy)-1-(2,3-dihydro-1H-indol-5-ylmethyl)-1H-pyridin-2-one], for which the melting point lay in the range of 137 to 139 °C. As to `N#CCc1cccc(Cn2ccc(OCc3ccc(F)cc3F)c(Br)c2=O)c1` [Example 97, {3-[3-bromo-4-(2,4-difluorobenzyloxy)-2-oxo-2H-pyridin-1-ylmethyl]-phenyl}acetonitrile], the melting point lay within 120 to 121 °C.

`N#Cc1ccccc1Cn1ccc(OCc2ccc(F)cc2F)c(Br)c1=O` [Example 98, 2-[3-bromo-4-(2,4-difluorobenzyloxy)-2-oxo-2H-pyridin-1-ylmethyl]benzonitrile] returned a melting point of 194 to 197 °C. Consider `COC(=O)c1cccc(Cn2ccc(OCc3ccc(F)cc3F)c(Br)c2=O)c1` [Example 100, Methyl 3-[3-Bromo-4-(2,4-difluorobenzyloxy)-2-oxo-2H-pyridin-1-ylmethyl]benzoate], for which the melting point is 115 to 117 °C. The same measure, in the same setting: then `COC(=O)c1ccc(Cn2ccc(OCc3ccc(F)cc3F)c(Br)c2=O)cc1` [Example 101, Methyl 4-[3-Bromo-4-(2,4-difluorobenzyloxy)-2-oxo-2H-pyridin-1-ylmethyl]-benzoate], with 136 to 139 °C; and `NC(=O)c1cccc(Cn2ccc(OCc3ccc(F)cc3F)c(Br)c2=O)c1` [Example 102, 3-[3-bromo-4-(2,4-difluorobenzyloxy)-2-oxo-2H-pyridin-1-ylmethyl]benzamide], with 198 to 201 °C; and `NC(=O)c1ccc(Cn2ccc(OCc3ccc(F)cc3F)c(Br)c2=O)cc1` [Example 103, 4-[3-bromo-4-(2,4-difluorobenzyloxy)-2-oxo-2H-pyridin-1-ylmethyl]benzamide], with 235 to 238 °C. The same measure, in the same setting: the value for `NCc1cccc(Cn2ccc(OCc3ccc(F)cc3F)c(Br)c2=O)c1F` [Example 104, 1-(3-aminomethyl-2-fluorobenzyl)-3-bromo-4-(2,4-difluorobenzyloxy)-1H-pyridin-2-one] was 160 to 163 °C; that for `COC(=O)c1cccc(Cn2ccc(OCc3ccc(F)cc3F)c(Cl)c2=O)c1F` [Example 105, Methyl 3-[3-chloro-4-(2,4-difluorobenzyloxy)-2-oxo-2H-pyridin-1-ylmethyl]-2-fluoro-benzoate] was 171 to 174 °C. Same read-out and setting: the value for `NC(=O)c1cccc(Cn2ccc(OCc3ccc(F)cc3F)c(Cl)c2=O)c1F` [Example 106, 3-[3-chloro-4-(2,4-difluorobenzyloxy)-2-oxo-2H-pyridin-1-ylmethyl]-2-fluoro-benzamide] was 252 to 254 °C; that for `O=c1c(Br)c(OCc2ccc(F)c(F)c2F)ccn1Cc1cccc(F)c1` [Example 108, 3-bromo-1-(3-fluorobenzyl)-4-(2,3,4-trifluorobenzyloxy)-1H-pyridin-2-one] was 176 to 178 °C.

For `O=c1c(Br)c(OCc2ccc(F)c(F)c2)ccn1Cc1cccc(F)c1` [Example 112, 3-bromo-4-(3,4-difluorobenzyloxy)-1-(3-fluorobenzyl)-1H-pyridin-2-one], the melting point fell in the range of 172 to 174 °C.

On to `NC(=O)Cc1ccccc1Cn1ccc(OCc2ccc(F)cc2F)c(Br)c1=O` [Example 126, 2-{2-[3-Bromo-4-(2,4-difluorobenzyloxy)-2-oxo-2H-pyridin-1-ylmethyl]-phenyl}acetamide], for which the melting point was 178 to 183 °C. Still for that read-out and setting: the value for `CCOC(=O)Cc1cccc(Cn2ccc(OCc3ccc(F)cc3F)c(Br)c2=O)c1` [Example 127, Ethyl {3-[3-Bromo-4-(2,4-difluorobenzyloxy)-2-oxo-2H-pyridin-1-ylmethyl]-phenyl}acetate] was 95 to 98 °C. As for `NC(=O)Cc1cccc(Cn2ccc(OCc3ccc(F)cc3F)c(Br)c2=O)c1` [Example 128, 2-{3-[3-Bromo-4-(2,4-difluorobenzyloxy)-2-oxo-2H-pyridin-1-ylmethyl]phenyl}acetamide], the melting point fell in the range of 164 to 167 °C.

For the compound `Cc1c(OCc2ccc(F)cc2F)ccn(Cc2cccc(F)c2)c1=O` [Example 129, 4-(2,4-Difluorobenzyloxy)-1-(3-fluorobenzyl)-3-methyl-1H-pyridin-2-one], the melting point fell in the range of 127 to 129 °C. Take `O=c1c(I)c(OCc2ccc(F)cc2F)ccn1Cc1cccc(F)c1` [Example 130, 4-(2,4-Difluorobenzyloxy)-1-(3-fluorobenzyl)-3-iodo-1H-pyridin-2-one]: the melting point was 164 to 167 °C. Consider `Cc1c(OCc2ccc(F)cc2F)cc(C)n(C2CCCCC2)c1=O` [Example 132, 1-cyclohexyl-4-(2,4-difluorobenzyloxy)-3,6-dimethyl-1H-pyridin-2-one], for which the melting point lay in the range of 118 to 120 °C.
